According to patent US20070219214A1, “Dual NK2/NK3-antagonists, pharmaceutical compositions comprising them, and processes for their preparation” (Solvay pharmaceuticals GmbH, priority 2006, published 2007):

Tests used:
NK1-receptor = target: T1, NK1-receptor (Cavia porcellus, UniProt P30547); test: Functional NK1-receptor antagonism in aortic ring preparations isolated from guinea pigs; conditions: Substance P-induced relaxation
T1 construct: from tissue; host or cells: whole animal (Pirbright-White guinea pigs), in vivo
T1 sequence (P30547 whole entry): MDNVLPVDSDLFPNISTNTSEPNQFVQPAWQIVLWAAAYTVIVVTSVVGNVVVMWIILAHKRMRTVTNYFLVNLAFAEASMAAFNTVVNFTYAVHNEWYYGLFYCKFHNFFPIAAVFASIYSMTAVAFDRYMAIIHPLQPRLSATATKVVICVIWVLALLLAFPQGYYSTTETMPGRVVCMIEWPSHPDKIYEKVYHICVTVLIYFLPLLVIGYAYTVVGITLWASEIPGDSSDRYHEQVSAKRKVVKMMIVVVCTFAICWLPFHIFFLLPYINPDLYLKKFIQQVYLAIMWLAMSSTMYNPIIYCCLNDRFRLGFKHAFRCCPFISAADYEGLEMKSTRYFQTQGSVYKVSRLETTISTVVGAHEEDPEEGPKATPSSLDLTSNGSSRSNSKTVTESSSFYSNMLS
Experimental: 5. Determination of Functional NK1-Receptor Antagonism of Test Compounds in Tissue Isolated from Guinea Pigs.
The NK1-antagonistic action of test compounds was tested in aortic ring preparations isolated from guinea pigs. The preparations were kept in an oxygenated nutrient solution kept at 37° C. For measuring contraction of the circular vascular muscle, the preparations were fixed to a hook and connected to force displacement transducers. Contractions/relaxations were recorded on a pen recorder. The preparations were given a medium tonus by addition of phenylephrine.
Before (predrug) and after the administration of the test compound such relaxations were measured and quantified in percent of the predrug relaxation. 2-3 concentrations of the test compound were applied showing the inhibition of the receptor stimulation concentration dependently. The concentration of half-maximal inhibition (IC50) and its negative logarithm pIC50=−log(IC50) was calculated. The pIC50 value indicates the inhibitory potency of the test compounds to the NK1-receptor.

human NK1-receptor = human NK1-receptor (Homo sapiens, UniProt P25103); test: Binding potency of the test substances to NK1-receptors in vitro ([3H]-Substance P displacement); conditions: human NK1-receptor in CHO cell membranes, average of at least three measurements, read-out: pKi, binding potency to NK1-receptors (converted)
human NK1-receptor, sequence (P25103 whole entry): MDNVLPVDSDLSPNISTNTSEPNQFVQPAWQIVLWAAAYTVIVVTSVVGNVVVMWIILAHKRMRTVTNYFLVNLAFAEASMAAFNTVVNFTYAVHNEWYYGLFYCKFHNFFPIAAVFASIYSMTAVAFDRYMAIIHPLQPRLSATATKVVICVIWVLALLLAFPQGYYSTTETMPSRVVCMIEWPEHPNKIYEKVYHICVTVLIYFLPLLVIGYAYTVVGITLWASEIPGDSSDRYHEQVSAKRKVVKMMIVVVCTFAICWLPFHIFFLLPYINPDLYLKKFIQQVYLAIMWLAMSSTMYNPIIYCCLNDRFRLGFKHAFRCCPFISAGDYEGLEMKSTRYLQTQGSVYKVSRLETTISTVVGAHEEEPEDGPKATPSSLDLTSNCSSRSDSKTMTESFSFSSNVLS
Experimental: 1. Determination of the Binding Potency of the Test Substances to NK1-Receptors in Vitro
The affinity of test compounds for NK1-receptors can be determined by measuring the ability of the test compound to displace a radiolabeled ligand from its specific binding site. The tests were performed at Solvay Pharmaceuticals, Weesp, The Netherlands.
Separation of bound radioactivity from free radioactivity was done by filtration through glass fiber filters (Packard GF/B) with several washings with ice-cold buffer solution. Bound radioactivity was measured with a liquid scintillation counter (total binding).
The inhibition constant (Ki) was calculated according to the Cheng-Prusoff equation, and listed as its negative logarithmic value (pKi). The pKi value describes the potency of a test compound to bind to a receptor.

| SMILES | pIC50, functional NK1-antagonism on isolated guinea pig tissue (NK1-receptor) | Ki (human NK1-receptor) |
| --- | --- | --- |
| CN(C)C(=O)C1(N2CCCCC2)CCN(CC[C@H](CN(C)C(=O)c2cc(C#N)c3ccccc3c2)c2ccc(Cl)c(Cl)c2)CC1 [compound 11] | 8.26 | – |
| CN(C)C(=O)C1(N2CCCCC2)CCN(CC[C@H](CN(C)C(=O)c2ccccc2)c2ccc(Cl)c(Cl)c2)CC1 [compound 1] | – | 79.4 nM |
